6 molecules from ChEMBL document CHEMBL5108088, “N-Methylamide-structured SB366791 derivatives with high TRPV1 antagonistic activity: toward PET radiotracers to visualize TRPV1” (RSC Med Chem, 2022) can be followed below.

Data set [1] deals with Transient receptor potential cation channel subfamily V member 1 (Rattus norvegicus, UniProt O35433). Description: Antagonist activity at rat TRPV1 expressed in human HEK293 cells assessed as inhibition of capsaicin-induced influx by measuring intracellular calcium accumulation by fura-2 dye based fluorimetric assay. Format: cell-based.
Data set [2] can be described thus: Drug uptake in iv dosed Sprague-Dawley rat brain hypothalamus assessed as high radioactivity in hypothalamus and measured upto 60 mins by PET imaging analysis. Format: ADME, organism-based. The note with it: in vivo, 1 h.
A short description of data set [3]: Drug uptake in iv dosed Sprague-Dawley rat brain striatum assessed as high radioactivity in striatum and measured upto 60 mins by PET imaging analysis. The note with it: in vivo, 1 h. Type of data set: ADME, organism-based.
Data set [4] in a line: Drug uptake in iv dosed Sprague-Dawley rat brain medulla oblongata assessed as high radioactivity in medulla oblongata and measured upto 60 mins by PET imaging analysis. Type of data set: ADME, organism-based. The conditions noted are these: in vivo, 1 h.
A short description of data set [5]: Drug uptake in iv dosed Sprague-Dawley rat brain thalamus assessed as high radioactivity and measured upto 60 mins by PET imaging analysis. Type of data set: ADME, organism-based. The conditions noted are these: in vivo, 1 h.
A short description of data set [6]: Drug uptake in iv dosed Sprague-Dawley rat brain assessed as high radioactivity in brain cortical area and measured upto 60 mins by PET imaging analysis. Format: ADME, organism-based. The note with it: in vivo, 1 h.
A short description of data set [7]: Drug uptake in iv dosed Sprague-Dawley rat gastrointestinal tract assessed as high radioactivity in gastrointestinal tract and measured upto 60 mins by PET imaging analysis. Type of data set: ADME, organism-based. The conditions noted are these: in vivo, 1 h.
Data set [8] in a line: Drug uptake in iv dosed Sprague-Dawley rat liver assessed as high radioactivity in liver and measured upto 60 mins by PET imaging analysis. Format: ADME, organism-based. The conditions noted are these: in vivo, 1 h.
A short description of data set [9]: Drug uptake in iv dosed Sprague-Dawley rat urinary bladder assessed as high radioactivity in urinary bladder and measured upto 60 mins by PET imaging analysis. Format: ADME, organism-based. The conditions noted are these: in vivo, 1 h.
Data set [10] can be described thus: Drug uptake in iv dosed Sprague-Dawley rat brain cerebellum assessed as high radioactivity in brain cerebellum and measured upto 60 mins by PET imaging analysis. Format: ADME, organism-based. The conditions noted are these: in vivo, 1 h.
The nature of data set [11]: Drug uptake in iv dosed Sprague-Dawley rat skin assessed as high radioactivity in body surface and measured upto 60 mins by PET imaging analysis. Format: ADME, organism-based, Skin of body. The note with it: in vivo, 1 h.

Chain of Transient receptor potential cation channel subfamily V member 1 (O35433 whole entry): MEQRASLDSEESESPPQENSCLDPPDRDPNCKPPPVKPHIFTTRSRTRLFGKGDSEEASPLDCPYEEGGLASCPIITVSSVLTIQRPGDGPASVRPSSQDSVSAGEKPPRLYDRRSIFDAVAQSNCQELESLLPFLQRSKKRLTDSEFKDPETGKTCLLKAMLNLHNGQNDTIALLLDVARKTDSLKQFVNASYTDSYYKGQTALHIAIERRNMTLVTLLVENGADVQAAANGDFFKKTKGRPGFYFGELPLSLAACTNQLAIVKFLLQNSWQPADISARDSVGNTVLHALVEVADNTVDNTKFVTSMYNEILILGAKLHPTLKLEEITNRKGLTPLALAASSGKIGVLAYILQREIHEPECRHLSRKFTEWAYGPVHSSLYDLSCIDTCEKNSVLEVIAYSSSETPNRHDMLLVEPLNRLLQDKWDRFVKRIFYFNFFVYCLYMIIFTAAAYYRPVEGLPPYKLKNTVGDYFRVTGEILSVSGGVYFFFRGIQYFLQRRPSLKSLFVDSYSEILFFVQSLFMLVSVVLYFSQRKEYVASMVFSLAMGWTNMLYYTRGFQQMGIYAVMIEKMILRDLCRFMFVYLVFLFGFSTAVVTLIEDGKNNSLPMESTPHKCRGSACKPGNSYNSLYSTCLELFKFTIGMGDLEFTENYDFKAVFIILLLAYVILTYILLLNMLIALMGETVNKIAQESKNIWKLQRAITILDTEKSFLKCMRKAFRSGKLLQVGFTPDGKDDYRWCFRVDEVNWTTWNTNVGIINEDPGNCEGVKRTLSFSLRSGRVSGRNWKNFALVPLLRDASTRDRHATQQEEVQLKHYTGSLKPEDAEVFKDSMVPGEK

For the molecule `COc1cccc(NC(=O)/C=C/c2ccc(Cl)cc2)c1`, the IC50 in data set [1] was 3700 nM.

In the case of `CN(C(=O)/C=C/c1ccc(Cl)cc1)c1cccc(OCCCF)c1`, in data set [1], the 50% inhibitory concentration (IC50) came out at 1100 nM.

Consider `CN(C(=O)/C=C/c1ccc(Cl)cc1)c1cccc(OCCF)c1`, for which the IC50 in [1] came to 4200 nM.

In the case of `COc1cccc(N(C)C(=O)/C=C/c2ccc(Cl)cc2)c1`, the IC50 in [1] was 1300 nM.

In the case of `CN(C(=O)/C=C/c1ccc(Cl)cc1)c1cccc(OCCC[18F])c1`, the Drug uptake entry in [2], in data set [3], in data set [4], in data set [5] and in data set [6] was “Active” each time.

On to `CN(C(=O)/C=C/c1ccc(Cl)cc1)c1cccc(O[11CH3])c1`, for which the Drug uptake result in [7], in data set [2], in data set [3], in data set [8], in [9] and in data set [4] was “Active” in each case. Besides, the Drug uptake entry in [10], in data set [11], in [5] and in [6] was “Active” each time.
